Source: PubChem BioAssay AID2742 (NMMLSC, 2010)
Calls of active or inactive are those of the source.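 How the source made its calls: active means fitted half-maximal concentration for changing background-corrected GFP signal at or below a set limit; inactive means the rest.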

Tested on: not listed separately
Experiment: modulators of MEP2-GFP levels in yeast, dose response, S. cerevisiae, flow cytometry GFP, MLPCN hits (AID 2742);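 on EC50: curve fit on GFP signal minus compound signal in parental s288c strain lacking GFP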;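 on GFP fluorescence (kMESF), higher = increase: GFP tag reports level of MEP2 protein as a downstream target of TOR signalling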
Conditions: S. cerevisiae MEP2-GFP strain, flow cytometry fluorescence, 3 h; at 33 µM (top of the series)
In the case of `Cc1[nH][nH]c(=O)c1C(c1ccc(-c2ccc(Cl)cc2)o1)c1c(C)[nH][nH]c1=O`, the GFP fluorescence (kMESF), higher = increase is reported as 3.72 kMESF (inactive).
For `O=C(Nc1nc2ccc(F)cc2s1)c1ccccn1`, the GFP fluorescence (kMESF), higher = increase was 3.71 kMESF (inactive).
For `C[C@@H]1C[C@@H]([C@H](O)CC2CC(=O)NC(=O)C2)C(=O)[C@@H](C)C1`, the GFP fluorescence (kMESF), higher = increase was 3.27 kMESF (inactive).
With `C[C@@]12C(=O)OC(=O)[C@]1(C)C1CCC2O1` the GFP fluorescence (kMESF), higher = increase was 3.51 kMESF (inactive).
For `Cc1ccc(-c2nc(C)sc2CC(=O)Nc2nnc(C)s2)cc1`, the GFP fluorescence (kMESF), higher = increase was 1.85 kMESF (inactive).
In the case of `CC[C@H](C)/C=C(C)/C=C/C1=CC2=C(Cl)C(=O)[C@@](C)(OC(C)=O)C(=O)C2=CO1`, the GFP fluorescence (kMESF), higher = increase is reported as 0.91 kMESF (inactive).
For `O=C(/C=C/c1ccccc1)NC(=S)NNC(=O)Cc1cccs1`, the GFP fluorescence (kMESF), higher = increase was 2.02 kMESF (inactive).
For `O=c1oc(/C=C/c2ccc([N+](=O)[O-])s2)nc2ccccc12`, the GFP fluorescence (kMESF), higher = increase was 5.31 kMESF (inactive).
In the case of `COc1cc(/C=C2\C(=O)ON=C2c2ccc(Cl)cc2)ccc1O`, the GFP fluorescence (kMESF), higher = increase is reported as 3.71 kMESF (inactive).
For `CCN(CC)c1ccc(/C=C2\C(=O)c3ccc(C(=O)O)cc3C2=O)cc1`, the GFP fluorescence (kMESF), higher = increase was 47.5 kMESF (inactive).
In the case of `Nc1ccc2ccc3cccc[n+]3c2c1`, the GFP fluorescence (kMESF), higher = increase is reported as 5.03 kMESF (inactive).

Tested on: S. cerevisiae MEP2-GFP strain, flow cytometry fluorescence, 3 h
Experiment: as above
Conditions: not given
`CNc1nc(N)c([N+](=O)[O-])c(Nc2cccc(F)c2)n1` gave an EC50 of 6850 nM.
Work on `CCOC(=O)COc1ccc2ccccc2c1/C=C/[N+](=O)[O-]` yielded an EC50 of 12700 nM.
`O=C1NC(=O)C(=Cc2ccc(-c3ccc(Cl)cc3)o2)C(=O)N1` gave an EC50 of 1380 nM.
`CC1(C)C[C@H]2C=C(C=O)[C@]3(C=O)C[C@]3(C)[C@H]2C1` showed an EC50 of 1260 nM.
Compound `Nc1ccc(Br)c2c1C(=O)c1ccccc1C2=O` has an EC50 of 1040 nM.
For `CCCCCCCCn1sccc1=O`, the EC50 was 1230 nM.
With `CNC(CC(=O)c1ccc([N+](=O)[O-])cc1)C(Cl)(Cl)Cl` (stereo unspecified) the EC50 was 2280 nM.
`Cc1ccc(/C=C/C(=O)c2ccccc(=O)c2O)c(C)c1` gave an EC50 of 13700 nM.
With `O=C(Oc1ccnc2cc(Cl)ccc12)N1CCCCCC1` the EC50 was 3860 nM.
Work on `O=C1NC(=O)N(Cc2ccc(F)cc2)C(=O)/C1=C/c1cccs1` yielded an EC50 of 3010 nM.
